Experimental data from US20120190666A1, “Heteroaryl Compounds as PIKK Inhibitors” (Amgen Inc., priority 2009, published 2012).

What was measured:
mTOR = mTOR (Homo sapiens, UniProt P42345); experiment: mTOR LanthaScreen (TR-FRET, phosphorylation of 4EBP1); type: biochemical; details: phosphorylation of GFP-4E-BP1, 10 μM ATP, 90 minutes
Protocol: The mTOR LanthaScreen is a TR-FRET assay measuring the phosphorylation of mTOR's substrate 4EBP1. 384 well compound plates were prepared containing 1 μl of compound per well starting at 5 mM and diluted 1:2 across the row, resulting in a 22 well serial dilution. 24 μl of assay buffer (Invitrogen, PV4794) with 2 mM DTT was added to the compound plate in rows 1-24 using the VELOCITY 11™ VPREP™ 384 ST resulting in a DMSO concentration of 4%. The compound plate was mixed and 2.5 μl of serially diluted compound or controls was added to the assay plate (Costar, 3658).
The assay was conducted on the PerkinElmer® FlexDrop PLUS. A 5 μl mix of 800 nM GFP-4E-BP1 (Invitrogen, PV4759) and 20 μM ATP (Amgen) was added to rows 1-24. 2.5 μl of 0.6 μg/ml of mTOR Enzyme (Amgen) was added to rows 1-23. 2.5 μl of assay buffer was added to row 24 for the low control. The final concentration of the compounds was 50 μM serially diluted to 23.84 pM in 1% DMSO. […] The final concentrations in the assay reagents were 400 nM GFP-4E-BP1, 10 μM of ATP and 0.15 μg/ml of mTOR enzyme. The compound, enzyme, and substrate were incubated for 90 minutes. At this point, 10 μl of stop solution was added (20 mM Tris, pH 7.5 (Invitrogen, 15567-027), 0.02% Sodium Azide (Teknova, S0208), 0.01% NP-40 (Roche, 11754599001), 20 mM EDTA (Invitrogen, 15575-038) and 4 nM of Tb-anti-p4E-BP1 (Invitrogen, PV4758)) for a final concentration of 2 nM of Tb-anti-p4E-BP1.
Sixty minutes later the plates were read on the PerkinElmer® EnVision™ 2103 Multilable Reader using the Excitation filter 340 nm and the Emission filters 520 nm and 495 nm.

[1] = system: phosphorylation of Akt at Serine 473 in U87 MG cells; experiment: pAkt AlphaScreen (U87 cell); type: cell-based; details: Homo sapiens, U-87 MG, 2 h; pAkt at Serine 473, U87 MG cells, two hours with compound
Protocol: The pAkt AlphaScreen® assay (PerkinElmer, Waltham, Mass.) determines whether there is phosphorylation of Akt at Serine 473 by recruitment of a phosphospecific antibody. This assay was performed using U87 MG cells. The U87 growth media consists of MEM (Gibco, Carlsbad, Calif.) supplemented with 10% FBS (Gibco), 1× Non-Essential Amino Acids (Gibco,) and 1× Penicillin/Streptomycin/Glutamine (Gibco). The cells were maintained weekly using 0.05% Trypsin (Gibco) and replated in 150 mm TC— Treated Culture Dishes (Corning, Corning, N.Y.).
The first day of the assay, the adherent cells were trypsinized, media was added to the loose cells and cells were mixed to a homogenous mixture. 0.5 ml of the homogenous mixture was counted on the Beckman Coulter® Vi-Cell™ XR (Fullerton, Calif.). 50 frames of cells were counted and the number of viable cells was determined. The cells were then diluted to 0.25 million cells per ml, and centrifuged at 200 rcf for 5 minutes. The media was removed and the cells were reconstituted in fresh media for plating. The cells were plated at 20 μl per well on the PerkinElmer® FlexDrop PLUS in Low Volume 384 Well White Tissue Culture Plates (Corning) with a final cell density of 5K cells per well. The plates were incubated overnight at 37° Celsius, 5% CO2.
On the second day, the compound plates were prepared, the cells were treated with compound and the pAkt reaction mix was added to the cell lysate. 384 well compound plates were prepared containing 1 μl of compound per well starting at 5 mM and diluted 1:2 across the row, resulting in a 22 well serial dilution. 39 μl of growth media was added to the compound plate in rows 1-22 using the PerkinElmer® FlexDrop PLUS resulting in a DMSO concentration of 2.5%. The cell plates and diluted compound plates were put onto the VELOCITY11™ VPREP™ 384 ST where the compound plate was mixed and 5 μl of serially diluted compound or controls was added to the cell plate. The final concentration of the compounds was 25 μM serially diluted to 11.9 pM in 0.5% DMSO.
The cell plates were then incubated with compound for two hours at 37° C., 5% CO2. After two hours, the media in the cell plates was aspirated using the BioTek® ELx405HT plate washer (Winooski, Vt.) removing the majority of media and compound without disturbing the adherent U87 cells. The following assay reagents are components of the SureFire® Akt (Ser 473) Phosphorylation 50K Point Kit (TGR BioSciences, Adelaide, Austalia) and an IgG Detection Kit (PerkinElmer, Waltham, Mass.). 5 μl of 1× Lysis Buffer was added to each well using the PerkinElmer® FlexDrop PLUS. The plates were then incubated at room temperature on a shaker for ten minutes. The AlphaScreen® reaction was prepared under low light conditions (subdued or green light) including p-Aid (Ser 473) Reaction Buffer, Dilution Buffer, Activation Buffer, Acceptor Beads and Donor Beads at a ratio of 40:20:10:1:1 respectively. The AlphaScreen® reaction was added to the cell lysate at 6 μl per well using the PerkinElmer® FlexDrop PLUS. The plates were placed in a humid environment to reduce edge effects and incubated overnight at room temperature with restricted air flow in the dark.
On the final day of the experiment, the plates were read on the PerkinElmer® EnVision™ 2103 Multilable Reader using the standard AlphaScreen® readout. The POC is calculated and the data is analyzed to report the IC50 IP for pAkt at Serine 473.
Activity data for the compounds tested in the PI3K cell based Akt assay is provided in Table 1 under the column heading U87

Structure (SMILES) | IC50 (mTOR) | IC50 [1]
Cc1nc(N)nc(-c2c(Nc3cc[nH]n3)nc3ccccn23)n1 [Cpd 1, 3-(4-amino-6-methyl-1,3,5-triazin-2-yl)-N-(1H-pyrazol-3-yl)imidazo[1,2-a]pyridin-2-amine] | 12 nM | 20 nM
Cc1nc(-c2c(Nc3cccc(O)c3)nc3ccccn23)c2nc[nH]c2n1 [Cpd 2] | 24 nM | 50 nM
CNc1nc(C)nc(-c2c(Nc3cc[nH]n3)nc3ccccn23)n1 [Cpd 3, 3-(4-methyl-6-(methylamino)-1,3,5-triazin-2-yl)-N-(1H-pyrazol-3-yl)imidazo[1,2-a]pyridin-2-amine] | 53 nM | 50 nM
Cc1nc(N)cc(-c2c(Nc3cc[nH]n3)nc3cccnn23)n1 [Cpd 7, 3-(6-amino-2-methylpyrimidin-4-yl)-N-(1H-pyrazol-3-yl)imidazo[1,2-b]pyridazin-2-amine] | 11 nM | 20 nM
Cc1nc(N)cc(-n2nc(C(=O)Nc3cccnc3)cc2Nc2ccn[nH]2)n1 [Cpd 11, 5-(1H-pyrazol-5-ylamino)-1-(6-amino-2-methylpyrimidin-4-yl)-N-(pyridin-3-yl)-1H-pyrazole-3-carboxamide] | 820 nM | 600 nM
Cc1nc(N)cc(-n2nc(C(=O)N3CCOCC3)cc2Nc2ccn[nH]2)n1 [Cpd 13, (5-(1H-pyrazol-5-ylamino)-1-(6-amino-2-methylpyrimidin-4-yl)-1H-pyrazol-3-yl)(morpholino)methanone] | 100 nM | 280 nM
CNC(=O)c1cc(Nc2ccn[nH]2)n(-c2cc(N)nc(C)n2)n1 [Cpd 14, 5-(1H-pyrazol-5-ylamino)-1-(6-amino-2-methylpyrimidin-4-yl)-N-methyl-1H-pyrazole-3-carboxamide] | 120 nM | 440 nM
CCOC(=O)c1cc(Nc2cc[nH]n2)n(-c2cc(N)nc(C)n2)n1 [Cpd 15, ethyl 5-(1H-pyrazol-3-ylamino)-1-(6-amino-2-methylpyrimidin-4-yl)-1H-pyrazole-3-carboxylate] | 144 nM | 110 nM
Cc1nc(N)cc(-n2nc(C(=O)NC3CC3)cc2Nc2cc[nH]n2)n1 [Cpd 16, 5-(1H-pyrazol-5-ylamino)-1-(6-amino-2-methylpyrimidin-4-yl)-N-cyclopropyl-1H-pyrazole-3-carboxamide] | 380 nM | 350 nM
Cc1cc(Nc2cc[nH]n2)n(-c2cc(N)nc(C)n2)n1 [Cpd 18, 6-(5-(1H-pyrazol-3-ylamino)-3-methyl-1H-pyrazol-1-yl)-2-methylpyrimidin-4-amine] | 860 nM | 710 nM
COc1ccc(Nc2cc(C)nn2-c2cc(N)nc(C)n2)cn1 [Cpd 24, 6-(5-(6-methoxypyridin-3-ylamino)-3-methyl-1H-pyrazol-1-yl)-2-methylpyrimidin-4-amine] | > 50000 nM | 870 nM
Cc1nc(Nc2ccccc2F)cc(-c2c(Nc3cc[nH]n3)nc3cccnn23)n1 [Cpd 31, 3-(6-((2-fluorophenyl)amino)-2-methyl-4-pyrimidinyl)-N-1H-pyrazol-3-ylimidazo[1,2-b]pyridazin-2-amine] | 6180 nM | 790 nM
COc1ccc(Nc2cc(-c3c(Nc4cc[nH]n4)nc4cccnn34)nc(C)n2)cc1 [Cpd 33] | 2840 nM | 290 nM
Cc1nc(Nc2cccnn2)cc(-c2c(Nc3ccn(C)n3)nc3cccnn23)n1 [Cpd 34, N-(1-methyl-1H-pyrazol-3-yl)-3-(2-methyl-6-(3-pyridazinylamino)-4-pyrimidinyl)imidazo[1,2-b]pyridazin-2-amine] | 440 nM | 60 nM
Cc1nc(Nc2ccc(N3CCN(C)CC3)nn2)cc(-c2c(Nc3cc[nH]n3)nc3cccnn23)n1 [Cpd 35, 3-(2-methyl-6-((6-(4-methyl-1-piperazinyl)-3-pyridazinyl)amino)-4-pyrimidinyl)-N-1H-pyrazol-3-ylimidazo[1,2-b]pyridazin-2-amine] | 10 nM | 70 nM
CCNC(=O)Nc1ccc(Nc2nc3ccccn3c2-c2cc(N)nc(C)n2)cc1 [Cpd 40, 1-(4-((3-(6-amino-2-methyl-4-pyrimidinyl)imidazo[1,2-a]pyridin-2-yl)amino)phenyl)-3-ethylurea] | 10 nM | 60 nM
Cc1nc(N)cc(-c2c(Nc3ccc4cc[nH]c4n3)nc3ccccn23)n1 [Cpd 41, 3-(6-amino-2-methyl-4-pyrimidinyl)-N-1H-pyrrolo[2,3-b]pyridin-6-ylimidazo[1,2-a]pyridin-2-amine] | 400 nM | 400 nM
Cc1nc(Nc2ccc(N3CCOCC3)nn2)cc(-c2c(Nc3cc[nH]n3)nc3ccccn23)n1 [Cpd 49, 3-(2-methyl-6-((6-(4-morpholinyl)-3-pyridazinyl)amino)-4-pyrimidinyl)-N-1H-pyrazol-3-ylimidazo[1,2-a]pyridin-2-amine] | 80 nM | 60 nM
COCCOc1cnnc(Nc2cc(-c3c(Nc4ccc(NC(C)=O)cc4)nc4cccnn34)nc(C)n2)c1 [Cpd 53, N-(4-((3-(6-((5-(2-methoxyethoxy)-3-pyridazinyl)amino)-2-methyl-4-pyrimidinyl)imidazo[1,2-b]pyridazin-2-yl)amino)phenyl)acetamide] | 1 nM | 10 nM
Cc1nc(N)cc(-c2c(Nc3ccc(NC(=O)Nc4ccncc4)cc3)nc3ccccn23)n1 [Cpd 57, 1-(4-((3-(6-amino-2-methyl-4-pyrimidinyl)imidazo[1,2-a]pyridin-2-yl)amino)phenyl)-3-(4-pyridinyl)urea] | 10 nM | 70 nM
Cc1nc(Nc2cc(OCC(F)(F)F)cnn2)cc(-c2c(Nc3cc[nH]n3)nc3cccnn23)n1 [Cpd 60, 3-(2-methyl-6-((5-(2,2,2-trifluoroethoxy)-3-pyridazinyl)amino)-4-pyrimidinyl)-N-1H-pyrazol-3-ylimidazo[1,2-b]pyridazin-2-amine] | 10 nM | 20 nM
CC(=O)Nc1cc(-c2c(Nc3ccn(C)n3)nc3c(F)cccn23)nc(C)n1 [Cpd 63, N-(6-(8-fluoro-2-((1-methyl-1H-pyrazol-3-yl)amino)imidazo[1,2-a]pyridin-3-yl)-2-methyl-4-pyrimidinyl)acetamide] | 60 nM | 50 nM
